For this test, the target named is 4-aminobutyrate aminotransferase, mitochondrial (Sus scrofa, UniProt P80147). Briefly: Compound was tested for the inhibitory effect against Gamma-amino-N-butyrate transaminase from pig brain.

Structures are written as SMILES.

4-aminobutyrate aminotransferase, mitochondrial, sequence (P80147 whole entry): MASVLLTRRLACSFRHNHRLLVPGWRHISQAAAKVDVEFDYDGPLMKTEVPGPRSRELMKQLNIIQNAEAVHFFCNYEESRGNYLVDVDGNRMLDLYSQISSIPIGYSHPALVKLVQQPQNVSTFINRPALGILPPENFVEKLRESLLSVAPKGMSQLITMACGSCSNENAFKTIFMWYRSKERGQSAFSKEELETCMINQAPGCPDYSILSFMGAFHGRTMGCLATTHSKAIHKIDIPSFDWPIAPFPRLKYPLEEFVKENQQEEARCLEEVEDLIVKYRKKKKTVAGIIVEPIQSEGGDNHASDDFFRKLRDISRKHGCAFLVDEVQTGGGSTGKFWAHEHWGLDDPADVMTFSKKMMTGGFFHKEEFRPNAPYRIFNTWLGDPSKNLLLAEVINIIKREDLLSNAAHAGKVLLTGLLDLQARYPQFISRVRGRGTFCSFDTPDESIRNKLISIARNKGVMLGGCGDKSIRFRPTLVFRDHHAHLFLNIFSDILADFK

The Ki is a dissociation constant, usually derived from enzyme kinetics or from competition with a known ligand. Low readings indicate higher affinity, high ones lower affinity. Consider `NC/C=C(\CF)C(=O)O`, for which the affinity corresponds to a Ki of 19 µM.
The figure for `NC/C=C(\CO)C(=O)O` is 5 µM; for `NC/C=C(\CCl)C(=O)O` it is 24 µM.

Values taken from ChEMBL document CHEMBL1123179, “4-Amino-2-(substituted methyl)-2-butenoic acids: substrates and potent inhibitors of gamma-aminobutyric acid aminotransferase” (J Med Chem, 1986).
